“Also recorded” adds a separate entry of the source.
Key:
Assay type in all cases: in vivo, mouse
[1] = tested on: CIP-KO/mdx dko mice; experiment: Oral gavage of Nox4 inhibitor in CIP-KO/mdx dko mice, cardiac function by echocardiography
Text: (§1) Nox4 inhibitor GKT 137831 was purchased from MilliporeSigma and dissolved in corn oil. Male mutation mice for both CIP and dystrophin genes (CIP-KO/mdx dko) were divided into four groups: • 1) group young control (3-month old mouse with corn oil); • 2) group young inhibitor (3-month old mouse with nox4 inhibitor); • 3) group old control (5-month old mouse with corn oil); • 4) group Old inhibitor (5-month old mouse with nox4 inhibitor) Male mutation mice for utrophin and dystrophin (c) were divided into two groups: • 1) group C: control (3-month old mouse with corn oil); • 2) group I: inhibitor (3-month old mouse with nox4 inhibitor); For all the animals in the inhibitor treatment group, the Nox4 Inhibitor (GKT137831 (SIGMA) diluted 1:100 in corn oil) was applied at the dosage of 60 mg/kg/day daily; control group was treated with corn oil only. Cardiac function was monitored using echocardiography before (pre-) and after Nox4 Inhibitor treatment at indicated times (weeks or months) and was presented as EF (ejection fraction) or FS % (fractional shortening), respectively. Utrn/mdx dko mice were sacrificed after final echocardiography measurement after 2 months. Histology was performed in the heart tissues and the expression of cardiac genes and fibronectin, a molecular marker for fibrosis, measured using real-time qPCR.

[2] = tested on: Utrn/mdx dko mice; experiment: Oral gavage of Nox4 inhibitor in Utrn/mdx dko mice, cardiac function by echocardiography; conditions: 60 mg/kg/day daily, 2, 4 and 8 weeks, both younger and older mice
Description: Nox4 inhibitor GKT 137831 was purchased from MilliporeSigma and dissolved in corn oil. […] Cardiac function was monitored using echocardiography before (pre-) and after Nox4 Inhibitor treatment at indicated times (weeks or months) and was presented as EF (ejection fraction) or FS % (fractional shortening), respectively. Utrn/mdx dko mice were sacrificed after final echocardiography measurement after 2 months. Histology was performed in the heart tissues and the expression of cardiac genes and fibronectin, a molecular marker for fibrosis, measured using real-time qPCR.

[3] = tested on: Utrn/mdx dko mice; experiment: Quantitative real time PCR of fibronectin in hearts of Utrn/mdx dko mice after Nox4 inhibitor treatment; conditions: 8 weeks after treatment, 60 mg/kg/day
Text: as §1, with “Male” for “Nox4 inhibitor GKT 137831 was purchased from MilliporeSigma and dissolved in corn oil. Male”

[4] = tested on: Utrn/mdx dko mice; experiment: Histology (Fast green/Sirius red staining) of heart sections of Utrn/mdx dko mice after Nox4 inhibitor treatment; conditions: 8 weeks after treatment, 60 mg/kg/day
Text: as §1, with “Male” for “Nox4 inhibitor GKT 137831 was purchased from MilliporeSigma and dissolved in corn oil. Male”

CN(C)c1cccc(-c2c3c(=O)n(-c4ccccc4Cl)[nH]c3cc(=O)n2C)c1 [GKT137831]
left ventricle dilation (LVID), echocardiography ([1]; CIP-KO:mdx mice, 60 mg/kg/day daily, both younger (start 3 months old) and older (start 5 months old) mice): reduced the left ventricle dilation (LVID) | cardiac function (Ejection Fraction, EF), echocardiography ([1]; CIP-KO:mdx mice, 60 mg/kg/day daily, both younger (start 3 months old) and older (start 5 months old) mice, 60 mg/kg/day): preserved cardiac function; also recorded: improves cardiac function | cardiac fibrosis ([1]; mdx/CIP-KO mice as worded in the summary sentence, 60 mg/kg/day daily): reduces cardiac fibrosis | dystrophic cardiomyopathy ([1]; mdx/CIP-KO mice, 60 mg/kg/day daily): potently ameliorated dystrophic cardiomyopathy | development of heart failure ([1]; mdx/CIP-KO mice, 60 mg/kg/day daily oral gavage, 60 mg/kg/day): preventing the development of heart failure; also recorded: potently prevents the development of heart failure | cardiac function (Ejection Fraction, EF; Fractional Shortening, FS %), echocardiography [2]: preserved cardiac function | left ventricle dilation (LVID), echocardiography [2]: reduced the left ventricle dilation (LVID) | fibronectin expression in the hearts, qPCR [3]: reduced fibronectin expression | formation of cardiac fibrosis and scars, Fast green/Sirius red staining [4]: decreased the formation of cardiac fibrosis and the formation of scars | size of the left ventricle dimension, histological analysis [4]: reduced the size of the left ventricle dimension

— US20230047313A1, “TREATING HEART DISEASE IN MUSCULAR DYSTROPHY PATIENTS” (Children`s Medical Center Corporation, priority 2019, published 2023)
